Measurements reported in the NIST ThermoML archive (doi:10.1016/j.jct.2011.05.018).

Test: xn = mol fraction of the nth substance listed
Settings: 101 kPa, Liquid; for viscosity: Capillary tube (Ostwald / Ubbelohde) method; for speed of sound: Pulse-echo method; for mass density: Pycnometric method

COc1ccc(C=O)cc1 [4-methoxybenzaldehyde] + Cc1cccc(O)c1
Settings	mass density [kg/m3]	speed of sound [m/s]	viscosity [mPa·s]
303.15 K, x1 = 0.0883	1031.6	1487.6	8.513
303.15 K, x1 = 0.1789	1037.8	1507.8	8.028
303.15 K, x1 = 0.2719	1044	1528.6	7.569
303.15 K, x1 = 0.3674	1052.6	1550.3	7.051
303.15 K, x1 = 0.4656	1060.7	1572.5	6.528
303.15 K, x1 = 0.5665	1068	1595.6	5.969
303.15 K, x1 = 0.6703	1076.4	1619.1	5.331
303.15 K, x1 = 0.777	1088	1643.4	4.593
303.15 K, x1 = 0.8869	1104.5	1668.4	3.93
303.15 K, x1 = 1	1125.2	1694.3	3.251
308.15 K, x1 = 0.0883	1026.7	1471.4	7.108
308.15 K, x1 = 0.1789	1032.4	1490.9	6.747
308.15 K, x1 = 0.2719	1038	1511	6.421
308.15 K, x1 = 0.3674	1045.4	1532.1	6.046
308.15 K, x1 = 0.4656	1052.3	1553.4	5.659
308.15 K, x1 = 0.5665	1060	1575.6	5.237
308.15 K, x1 = 0.6703	1066.1	1598.2	4.741
308.15 K, x1 = 0.777	1077.2	1621.6	4.151
308.15 K, x1 = 0.8869	1092.6	1645.7	3.648
308.15 K, x1 = 1	1111.6	1670.7	3.131
313.15 K, x1 = 0.0883	1022.8	1455.7	5.894
313.15 K, x1 = 0.1789	1028.4	1473.1	5.629
313.15 K, x1 = 0.2719	1034.8	1490.7	5.393
313.15 K, x1 = 0.3674	1042.8	1509.2	5.13
313.15 K, x1 = 0.4656	1049.1	1528.1	4.858
313.15 K, x1 = 0.5665	1056.8	1547.6	4.555
313.15 K, x1 = 0.6703	1064.4	1567.4	4.181
313.15 K, x1 = 0.777	1075.1	1588.1	3.724
313.15 K, x1 = 0.8869	1090.9	1609.3	3.34
313.15 K, x1 = 1	1109.5	1631.3	2.961
318.15 K, x1 = 0.0883	1019.2	1437.7	4.849
318.15 K, x1 = 0.1789	1026.5	1449.6	4.655
318.15 K, x1 = 0.2719	1033.4	1461.5	4.47
318.15 K, x1 = 0.3674	1041.6	1474.1	4.272
318.15 K, x1 = 0.4656	1048.2	1487	4.085
318.15 K, x1 = 0.5665	1055.2	1500.1	3.868
318.15 K, x1 = 0.6703	1062.5	1513.5	3.586
318.15 K, x1 = 0.777	1073.3	1527.5	3.236
318.15 K, x1 = 0.8869	1088.4	1542	2.949
318.15 K, x1 = 1	1104.7	1557	2.682

Cc1ccc(O)cc1 [4-methylphenol] + COc1ccc(C=O)cc1
x2 = 0
Settings	mass density [kg/m3]	speed of sound [m/s]	viscosity [mPa·s]
303.15 K	1026.5	1468.4	9.54
308.15 K	1022	1455.8	8.119
313.15 K	1018.1	1443.7	6.741
318.15 K	1013.9	1432.7	5.469

Cc1ccccc1O [2-methylphenol] + COc1ccc(C=O)cc1
x2 = 0
Settings	mass density [kg/m3]	speed of sound [m/s]	viscosity [mPa·s]
303.15 K	1036.2	1485.3	7.479
308.15 K	1031	1466.8	5.963
313.15 K	1026	1452.1	4.238
318.15 K	1021.1	1437.1	2.215

COc1ccc(C=O)cc1 [4-methoxybenzaldehyde] + Cc1ccccc1O
Settings	mass density [kg/m3]	speed of sound [m/s]	viscosity [mPa·s]
303.15 K, x1 = 0.0875	1039.2	1507.7	7.163
303.15 K, x1 = 0.1774	1044.2	1526.3	6.824
303.15 K, x1 = 0.2699	1050.1	1545.5	6.519
303.15 K, x1 = 0.3651	1058.5	1565	6.202
303.15 K, x1 = 0.4631	1067.1	1585.2	5.778
303.15 K, x1 = 0.564	1074.3	1611.2	5.319
303.15 K, x1 = 0.668	1081.3	1637	4.811
303.15 K, x1 = 0.7753	1093.2	1658.9	4.261
303.15 K, x1 = 0.8859	1106.6	1681.5	3.758
303.15 K, x1 = 1	1125.2	1694.3	3.251
308.15 K, x1 = 0.0875	1033.8	1488.3	5.762
308.15 K, x1 = 0.1774	1038.2	1506.2	5.54
308.15 K, x1 = 0.2699	1043.4	1524.9	5.361
308.15 K, x1 = 0.3651	1050.6	1544.2	5.168
308.15 K, x1 = 0.4631	1058.4	1564	4.874
308.15 K, x1 = 0.564	1065	1589.4	4.56
308.15 K, x1 = 0.668	1071.5	1613.8	4.196
308.15 K, x1 = 0.7753	1082.8	1635.2	3.815
308.15 K, x1 = 0.8859	1095.3	1657.2	3.475
308.15 K, x1 = 1	1111.6	1670.7	3.131
313.15 K, x1 = 0.0875	1030.2	1470.7	4.162
313.15 K, x1 = 0.1774	1034.7	1486.3	4.072
313.15 K, x1 = 0.2699	1040.9	1502.6	4.007
313.15 K, x1 = 0.3651	1047.3	1519.6	3.936
313.15 K, x1 = 0.4631	1055.4	1536.9	3.806
313.15 K, x1 = 0.564	1062.1	1560.3	3.673
313.15 K, x1 = 0.668	1070	1580	3.494
313.15 K, x1 = 0.7753	1082.1	1598.1	3.291
313.15 K, x1 = 0.8859	1094.9	1617.6	3.126
313.15 K, x1 = 1	1109.5	1631.3	2.961
318.15 K, x1 = 0.0875	1026.3	1449.6	2.269
318.15 K, x1 = 0.1774	1031.9	1460.1	2.313
318.15 K, x1 = 0.2699	1038.3	1470.9	2.363
318.15 K, x1 = 0.3651	1044.3	1482.2	2.414
318.15 K, x1 = 0.4631	1052.8	1493.9	2.451
318.15 K, x1 = 0.564	1059.5	1511.3	2.496
318.15 K, x1 = 0.668	1067.7	1524.3	2.543
318.15 K, x1 = 0.7753	1078.8	1536.6	2.589
318.15 K, x1 = 0.8859	1090.1	1549.5	2.631
318.15 K, x1 = 1	1104.7	1557	2.682

Cc1cccc(O)c1 [3-methylphenol] + COc1ccc(C=O)cc1
x2 = 0
Settings	mass density [kg/m3]	speed of sound [m/s]	viscosity [mPa·s]
303.15 K	1025.8	1464.2	8.929
308.15 K	1021.5	1449.3	7.412
313.15 K	1017	1436.3	6.116
318.15 K	1013.5	1424.2	5.019
